Each compound was assayed against T1, 5-HT 1B receptors (Homo sapiens, UniProt P28222) (assay: 5-HT 1B and 5-HT 1D receptor binding ([3H]-5-HT displacement, CHO cell homogenates)). Details: CHO cells expressing receptor; [3H]-5-HT 4 nM; Tris Mg HCl buffer pH 7.7; 37° C., 45 minutes; pKi calculated from IC50.
T1 construct: expressed in transfected cells; host or cells: CHO cells (homogenised in Tris buffer)
Description: CHO cells expressing 5-HT 1D receptors (0.563×10^8 cells/ml) were homogenised in Tris buffer and stored in 1 ml aliquots. CHO cells expressing 5-HT 1B receptors (4×10^7 cells/ml) were homogenised in Tris buffer and stored in 1.5 ml aliquots. 0.4 ml of a cell suspension was incubated with [^3 H-5-HT (4 nM) in Tris Mg HCl buffer (pH 7.7) and test drug, at 37° C. for 45 minutes. Each test drug was tested at 10 concentrations (0.01 mM to 0.3 nM final concentration), with non-specific binding defined using 0.01 mM 5-HT. The total assay volume was 0.5 ml. Incubation was stopped by rapid filtration using a Packard Filtermate (filters pre-soaked in 0.3% polyethylenimine) and radioactivity measured by Topcount scintillation counting. pKi values were calculated from the IC50 generated by an iterative least squares curve fitting programme.

T1 sequence (P28222 whole entry): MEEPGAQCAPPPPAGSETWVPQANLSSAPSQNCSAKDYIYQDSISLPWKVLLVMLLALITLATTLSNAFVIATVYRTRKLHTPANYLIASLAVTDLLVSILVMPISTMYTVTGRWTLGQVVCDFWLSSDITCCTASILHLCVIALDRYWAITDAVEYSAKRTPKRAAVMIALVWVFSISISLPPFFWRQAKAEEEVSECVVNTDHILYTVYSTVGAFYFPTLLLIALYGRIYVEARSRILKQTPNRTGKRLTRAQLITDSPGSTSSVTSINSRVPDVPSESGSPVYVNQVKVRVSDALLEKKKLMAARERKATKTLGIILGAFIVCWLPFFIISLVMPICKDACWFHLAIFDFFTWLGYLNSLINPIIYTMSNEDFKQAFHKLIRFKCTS

Row | SMILES | pKi values at 5-HT 1D beta receptors
1 | Cc1cc(N2CCCC2=O)ccc1-c1ccc(C(=O)N2CCc3cc4c(cc32)C2(CO4)C[C@@H](C)N(C)[C@@H](C)C2)cc1 (stereo partly drawn) [Example 28, cis-2',6'-dimethyl isomer of 5-[2'-Methyl-4'-(2-oxopyrrolidin-1-yl)biphenyl-4-carbonyl]-2,3,6,7-tetrahydro-1',2',6'-trimethylspiro[furo[2,3-f]indole-3,4'-piperidine]] | > 8.0

Same assay, conditions: CHO cells expressing receptor; [3H]-5-HT 4 nM; Tris Mg HCl buffer pH 7.7; 37° C., 45 minutes; pKi calculated from IC50; read-out: pKi values at 5-HT 1D beta receptors (converted)

Row | SMILES | Ki [nM]
2 | Cc1cc(N2CCN(C)C2=O)ccc1-c1ccc(C(=O)N2CCc3cc4c(cc32)C2(CCN(C)CC2)CO4)cc1 [Example 8] | < 10
3 | CC(=O)Nc1ccc(-c2ccc(C(=O)N3CCc4cc5c(cc43)C3(CCN(C)CC3)CO5)cc2)c(C)c1 [Example 4, 5-(4'-Acetamido-2'-methylbiphenyl-4-carbonyl)-1'-methyl-2,3,6,7-tetrahydrospiro[furo[2,3-f]indole-3,4'-piperidine]] | < 10
4 | C=CCN1CCC2(CC1)COc1cc3c(cc12)N(C(=O)c1ccc(-c2ccc(N4CCCC4=O)cc2C)cc1)CC3 [Example 24, 1'-Allyl-5-[2'-methyl-4'-(2-oxopyrrolidin-1-yl)biphenyl-4-carbonyl]-2,3,6,7-tetrahydrospiro[furo[2,3-f]indole-3,4'-piperidine]] | < 10
5 | Cc1cc(N2CCC(C)C2=O)ccc1-c1ccc(C(=O)N2CCc3cc4c(cc32)C2(CCN(C)CC2)CO4)cc1 (stereo not drawn) [Example 9] | < 10
6 | Cc1cc(N2CCCC2=O)ccc1-c1ccc(C(=O)C2=C3CC4=C(C=C3N=C2)OCC42CCN(C)CC2)cc1 [Example 33, 2,3-Dihydro-1'-methyl-5-[2'-methyl-4'-(2-oxopyrrolidin-1-yl)biphenyl-4-carbonyl]spiro[furo[3,2-f]indole3,4'-piperidine]] | < 10
7 | CN1CCC2(CC1)COc1cc3c(cc12)N(C(=O)c1ccc(-c2ccc(N4CCCC4=O)cc2Cl)cc1)CC3 [Example 14] | < 10
8 | Cc1cc(N2CCNC2=O)ccc1-c1ccc(C(=O)N2CCc3cc4c(cc32)C2(CCN(C)CC2)CO4)cc1 [Example 7] | < 10
9 | Cc1cc(N2CCOC2=O)ccc1-c1ccc(C(=O)N2CCc3cc4c(cc32)C2(CCN(C)CC2)CO4)cc1 [Example 3, 5-[4'-(4,5-Dihydro-2-oxooxazol-3-yl)-2'-methylbiphenyl-4-carbonyl]-1'-methyl-2,3,6,7-tetrahydrospiro[furo[2,3-f]indole-3,4'-piperidine]] | < 10

— patent publication US6100272A, “Tetracyclic spiro compounds as 5HT1B receptor antagonists” (SmithKline Beecham p.l.c., priority 1996, dated 2000)
